Test results: patent US7435837B2, “Dihydrobenzofuranyl alkanamine derivatives and methods for using same” (Wyeth, priority 2003, dated 2008)
pEC50, pKi: −log10 of the molar value. Where two headings read alike, the source gives them in different places.

Experiments:
[1] = target: T1, human 5-hydroxytryptamine-2C (h5-HT2C) receptor (Homo sapiens, UniProt P28335); test: [125I]DOI binding to membranes of CHO cells expressing the human 5-HT2C receptor; conditions: [125I]DOI radioligand, CHO cell membranes, room temperature 60 min; for pKi: read-out: 5-HT2C Affinity Ki
T1 construct: expressed in transfected cells; host or cells: CHO (Chinese Hamster Ovary) cells; membranes
T1 sequence (P28335 33-458): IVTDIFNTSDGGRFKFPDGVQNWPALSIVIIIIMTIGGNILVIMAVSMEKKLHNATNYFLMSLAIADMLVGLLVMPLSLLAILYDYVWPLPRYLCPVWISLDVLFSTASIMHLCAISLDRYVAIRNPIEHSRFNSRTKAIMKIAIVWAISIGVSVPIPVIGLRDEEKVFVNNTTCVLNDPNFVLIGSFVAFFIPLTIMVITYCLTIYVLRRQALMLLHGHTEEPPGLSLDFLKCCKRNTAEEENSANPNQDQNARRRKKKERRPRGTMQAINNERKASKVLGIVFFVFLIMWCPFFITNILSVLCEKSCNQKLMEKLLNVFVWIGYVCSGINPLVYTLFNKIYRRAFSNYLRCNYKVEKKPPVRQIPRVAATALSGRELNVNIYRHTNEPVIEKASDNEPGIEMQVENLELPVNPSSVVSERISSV

human 5-HT2C receptor = target: T2, human 5-HT2C receptor (Homo sapiens, UniProt P28335); test: 5-HT2C receptor-stimulated calcium mobilization (FLIPR) in CHO cells; type: cell-based; conditions: for Emax: CHO; for pEC50: read-out: 5-HT2C Function EC50;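 as to all read-outs here: Fluo-3-AM fluorescence read on FLIPR every 1 s, agonist added after 10 baseline reads, response taken as peak minus lowest raw fluorescence count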
T2 sequence (P28335 33-458): T1 sequence (P28335 33-458)

[2] = percentage of the response observed with a maximally effective concentration of 5-HT, read-out: 5-HT2C Function Emax (%)
[3] = calcium mobilization, CHO cells stably expressing human 5-HT2C

| Structure (SMILES) | pKi [1] | Emax (human 5-HT2C receptor; [2]) | pEC50 (human 5-HT2C receptor; [3]) | Ki ([1]; 5-HT2C Affinity Ki (nM)) | EC50 (human 5-HT2C receptor; 5-HT2C Function EC50 (nM), calcium mobilization, CHO cells stably expressing human 5-HT2C) | Emax (human 5-HT2C receptor; read-out: 5-HT2C Function Emax (%), percentage of the response observed with a maximally effective concentration of 5-HT) |
| --- | --- | --- | --- | --- | --- | --- |
| Cc1ccccc1-c1cc(C#N)cc2c1OC(CN)C2 (racemic) [Example 311, (±)-2-(aminomethyl)-7-(2-methylphenyl)-2,3-dihydro-1-benzofuran-5-carbonitrile] | 7.60 | 90% | 7.20 | – | – | – |
| NCC1Cc2cc(C(F)(F)F)cc(-c3ccccc3F)c2O1 (racemic) [Example 313, (±)-{[5-(trifluoromethyl)-7-(2-fluorophenyl)-2,3-dihydro-1-benzofuran-2-yl]methyl}amine] | 6.79 | 90% | 7.15 | – | – | – |
| Cc1ccccc1-c1cc(C(F)(F)F)cc2c1OC(CN)C2 (racemic) [Example 314, (±)-{[5-(trifluoromethyl)-7-(2-methylphenyl)-2,3-dihydro-1-benzofuran-2-yl]methyl}amine] | 7.74 | 90% | 7.38 | – | – | – |
| NCC1Cc2cc(C(F)(F)F)cc(-c3ccccc3Cl)c2O1 (racemic) [Example 315, (±)-{[5-(trifluoromethyl)-7-(2-chlorophenyl)-2,3-dihydro-1-benzofuran-2-yl]methyl}amine] | 7.60 | 90% | 7.72 | – | – | – |
| COc1ccc(-c2cc(C(F)(F)F)cc3c2OC(CN)C3)cc1 (racemic) [Example 326, (±)-{[5-(trifluoromethyl)-7-(4-methoxyphenyl)-2,3-dihydro-1-benzofuran-2-yl]methyl}amine] | 7.47 | 80% | 6.64 | – | – | – |
| COc1cccc(-c2cc(C(F)(F)F)cc3c2OC(CN)C3)c1OC (racemic) [Example 331, (±)-{[7-(2,3-dimethoxyphenyl)-5-(trifluoromethyl)-2,3-dihydro-1-benzofuran-2-yl]methyl}amine] | 7.42 | 80% | 6.57 | – | – | – |
| NCC1Cc2cc(C(F)(F)F)cc(-c3ccc(F)cc3F)c2O1 (racemic) [Example 332, (±)-{[7-(2,4-difluorophenyl)-5-(trifluoromethyl)-2,3-dihydro-1-benzofuran-2-yl]methyl}amine] | 7.43 | 80% | 6.95 | – | – | – |
| NCC1Cc2cc(C(F)(F)F)cc(-c3cc(F)ccc3F)c2O1 (racemic) [Example 336, (±)-{[7-(2,5-difluorophenyl)-5-(trifluoromethyl)-2,3-dihydro-1-benzofuran-2-yl]methyl}amine] | 7.35 | 90% | 6.91 | – | – | – |
| NCC1Cc2cc(C(F)(F)F)cc(-c3cc(Cl)ccc3Cl)c2O1 (racemic) [Example 337, (±)-{[7-(2,5-dichlorophenyl)-5-(trifluoromethyl)-2,3-dihydro-1-benzofuran-2-yl]methyl}amine] | 7.47 | 90% | 7.32 | – | – | – |
| NCC1Cc2cc(C(F)(F)F)cc(-c3ccoc3)c2O1 (racemic) [Example 341, (±)-{[7-(3-furyl)-5-(trifluoromethyl)-2,3-dihydro-1-benzofuran-2-yl]methyl}amine] | 7.44 | 90% | 6.64 | – | – | – |
| NCC1Cc2cc(C(F)(F)F)cc(-c3ccsc3)c2O1 (racemic) [Example 342, (±)-{[7-thien-3-yl-5-(trifluoromethyl)-2,3-dihydro-1-benzofuran-2-yl]methyl}amine] | 7.55 | 80% | 6.23 | – | – | – |
| NCC1Cc2cc(-c3ccccc3)cc(-c3ccccc3)c2O1 (racemic) [Example 344, (±)-[(5,7-diphenyl-2,3-dihydro-1-benzofuran-2-yl)methyl]amine] | 6.56 | 60% | 5.54 | – | – | – |
| COc1cc2c(c(-c3ccccc3Cl)c1)OC(CN)C2 (racemic) [Example 357, (±)-{[7-(2-chlorophenyl)-5-methoxy-2,3-dihydro-1-benzofuran-2-yl]methyl}amine] | – | – | – | 18 nM | 2 nM | 100% |

Second part, led by results:

| pKi [1] | Emax (human 5-HT2C receptor; [2]) | pEC50 (human 5-HT2C receptor; [3]) | Structure (SMILES) | Ki ([1]; 5-HT2C Affinity Ki (nM)) | EC50 (human 5-HT2C receptor; 5-HT2C Function EC50 (nM), calcium mobilization, CHO cells stably expressing human 5-HT2C) | Emax (human 5-HT2C receptor; read-out: 5-HT2C Function Emax (%), percentage of the response observed with a maximally effective concentration of 5-HT) |
| --- | --- | --- | --- | --- | --- | --- |
| 9.40 | 100% | 7.66 | Cc1cc2c(c(-c3ccc(F)cc3)c1)OC(CN)C2 (racemic) [Example 291, (±)-{[7-(4-fluorophenyl)-5-methyl-2,3-dihydro-1-benzofuran-2-yl]methyl}amine] | – | – | – |
| 8.31 | 100% | 7.18 | Cc1cc2c(c(-c3ccc(Cl)cc3)c1)OC(CN)C2 (racemic) [Example 292, (±)-{[7-(4-chlorophenyl)-5-methyl-2,3-dihydro-1-benzofuran-2-yl]methyl}amine] | – | – | – |
| 8.42 | 90% | 8.15 | COc1ccc(-c2cc(C)cc3c2OC(CN)C3)cc1 (racemic) [Example 293, (±)-{[7-(4-methoxyphenyl)-5-methyl-2,3-dihydro-1-benzofuran-2-yl]methyl}amine] | – | – | – |
| 9.96 | 90% | 8.10 | COc1cccc(-c2cc(C)cc3c2OC(CN)C3)c1OC (racemic) [Example 294, (±)-{[7-(2,3-dimethoxyphenyl)-5-methyl-2,3-dihydro-1-benzofuran-2-yl]methyl}amine] | – | – | – |
| 9.25 | 100% | 9.14 | Cc1cc2c(c(-c3ccc(Cl)cc3Cl)c1)OC(CN)C2 (racemic) [Example 297, (±)-{[7-(2,4-dichlorophenyl)-5-methyl-2,3-dihydro-1-benzofuran-2-yl]methyl}amine] | – | – | – |
| 10.00 | 90% | 8.52 | Cc1cc2c(c(-c3cc(Cl)ccc3Cl)c1)OC(CN)C2 (racemic) [Example 300, (±)-{[7-(2,5-dichlorophenyl)-5-methyl-2,3-dihydro-1-benzofuran-2-yl]methyl}amine] | – | – | – |
| 8.70 | 90% | 7.51 | Cc1cc2c(c(-c3c(C)cccc3C)c1)OC(CN)C2 (racemic) [Example 301, (±)-{[7-(2,6-dimethylphenyl)-5-methyl-2,3-dihydro-1-benzofuran-2-yl]methyl}amine] | – | – | – |
| 9.52 | 100% | 8.70 | Cc1cc2c(c(-c3c(Cl)cccc3Cl)c1)OC(CN)C2 (racemic) [Example 302, (±)-{[7-(2,6-dichlorophenyl)-5-methyl-2,3-dihydro-1-benzofuran-2-yl]methyl}amine] | – | – | – |
| 9.24 | 100% | 9.19 | CCc1cc2c(c(-c3ccccc3Cl)c1)OC(CN)C2 (racemic) [Example 306, (±)-{[5-ethyl-7-(2-chlorophenyl)-2,3-dihydro-1-benzofuran-2-yl]methyl}amine] | – | – | – |
| 9.00 | 90% | 7.31 | Cc1ccccc1-c1cc(C(C)C)cc2c1OC(CN)C2 (racemic) [Example 307, (±)-{[5-isopropyl-7-(2-methylphenyl)-2,3-dihydro-1-benzofuran-2-yl]methyl}amine] | – | – | – |
| 9.05 | 90% | 7.62 | CC(C)c1cc2c(c(-c3ccccc3Cl)c1)OC(CN)C2 (racemic) [Example 308, (±)-{[5-isopropyl-7-(2-chlorophenyl)-2,3-dihydro-1-benzofuran-2-yl]methyl}amine] | – | – | – |
| 8.10 | 90% | 6.97 | Cc1ccccc1-c1cc(C2CCCC2)cc2c1OC(CN)C2 (racemic) [Example 309, (±)-{[5-cyclopentyl-7-(2-methylphenyl)-2,3-dihydro-1-benzofuran-2-yl]methyl}amine] | – | – | – |
| 7.89 | 90% | 6.86 | NCC1Cc2cc(C3CCCC3)cc(-c3ccccc3Cl)c2O1 (racemic) [Example 310, (±)-{[5-cyclopentyl-7-(2-chlorophenyl)-2,3-dihydro-1-benzofuran-2-yl]methyl}amine] | – | – | – |
| 7.82 | 90% | 7.60 | N#Cc1cc2c(c(-c3ccccc3Cl)c1)OC(CN)C2 (racemic) [Example 312, (±)-2-(aminomethyl)-7-(2-chlorophenyl)-2,3-dihydro-1-benzofuran-5-carbonitrile] | – | – | – |
| 7.89 | 90% | 7.15 | COc1ccc(-c2cc(C(F)(F)F)cc3c2OC(CN)C3)c(OC)c1 (racemic) [Example 333, (±)-{[7-(2,4-dimethoxyphenyl)-5-(trifluoromethyl)-2,3-dihydro-1-benzofuran-2-yl]methyl}amine] | – | – | – |
| 7.85 | 90% | 7.36 | Cc1cccc(C)c1-c1cc(C(F)(F)F)cc2c1OC(CN)C2 (racemic) [Example 338, (±)-{[7-(2,6-dimethylphenyl)-5-(trifluoromethyl)-2,3-dihydro-1-benzofuran-2-yl]methyl}amine] | – | – | – |
| 7.92 | 90% | 7.31 | NCC1Cc2cc(C(F)(F)F)cc(-c3cccnc3)c2O1 (racemic) [Example 343, (±)-{[7-pyridin-3-yl-5-(trifluoromethyl)-2,3-dihydro-1-benzofuran-2-yl]methyl}amine] | – | – | – |
| 9.20 | 100% | 7.20 | COc1cc2c(c(-c3ccccc3F)c1)OC(CN)C2 (racemic) [Example 356, (±)-{[7-(2-fluorophenyl)-5-methoxy-2,3-dihydro-1-benzofuran-2-yl]methyl}amine] | – | – | – |
